Data set [1] can be described thus: Chemiluminescence properties of NIR luminophores under physiological conditions. In kind it is physicochemical. The following applies: for ΦCL (chemiluminescence efficiency) / λ maxCL (maximal chemiluminescence emission): physiological conditions. Here is the method:
All reactions requiring anhydrous conditions were performed under an argon atmosphere. All reactions were carried out at room temperature unless stated otherwise. Chemicals and solvents were either A.R. grade or purified by standard techniques. TLC: silica gel plates Merck 60 F254: compounds were visualized by irradiation with UV light. Column chromatography (FC): silica gel Merck 60 (particle size 0.040-0.063 mm), eluent given in parentheses. RP-HPLC: C18 5u, 250×4.6 mm, eluent given in parentheses. Preparative RP-HPLC: C18 5u, 250×21 mm, eluent given in parentheses. ^1H-NMR spectra were recorded using Bruker Avance operated at 400 MHz. ^13C-NMR spectra were recorded using Bruker Avance operated at 100 MHz. Chemical shifts were reported in ppm on the δ scale relative to a residual solvent (CDCl3: δ=7.26 for ^1H-NMR and 77.16 for ^13C-NMR, DMSO-d6: δ=2.50 for ^1H-NMR and 39.52 for ^13C-NMR). Mass spectra were measured on Waters Xevo TQD. Fluorescence and chemiluminescence were recorded on Molecular Devices Spectramax i3x. Fluorescence quantum yield was determined using Hamamatsu Quantaurus-QY. All reagents, including salts and solvents, were purchased from Sigma-Aldrich. Light irradiation for photochemical reactions: LED PAR38 lamp (19 W, 3000K).
Next, we incubated our luminophores under physiological conditions and evaluated their properties. […] As expected, the chemiluminescence emission spectra correlate with the fluorescence spectra of their corresponding decomposition benzoate esters products. […] This difference is attributed to the reduced pKa of Luminophore 2, which accelerate the generation of enriched phenolate population that spontaneously undergoes the chemiexcitation process. The chemiluminescence efficiency of Luminophores 1 and 2 was calculated to be 0.82% and 1.12% respectively. These outstanding results encouraged us to investigate the imaging features of our NIR luminophores to serve as a reporter both in-vitro and in-vivo bioassays.

Data set [2] in a line: Chemiluminescence kinetic profile of probe in presence and absence of H2O2. The following applies: probe 10 μM in serum, presence vs absence of H2O2 50 μM. As to the method:
(§1) FIGS. 4A-4C show the chemiluminescent kinetic profile of Probe 2a [10 μM] in serum, in the presence and absence of H2O2[50 μM] (4A); in-vivo imaging of endogenous H2O2 in the peritoneal cavity of mice during an LPS-induced inflammatory response, using probes 2a and 2b. Images of mice were recorded on BioSpace Lab PhotonIMAGER™. Group A: 1 mL of 0.1 mg/mL LPS was injected into the peritoneal cavity of mice, followed 4 h later by an IP injection of Probe 2a [100 μM, 100 μL in PBS]. Group B: 1 mL of 0.1 mg/mL LPS was injected into the peritoneal cavity of mice, followed 4 h later by an IP injection of Probe 2b [100 μM, 100 μL in PBS]. Group C: 1 mL PBS 7.4 was injected into the peritoneal cavity of mice, followed 4 h later by an IP injection of Probe 2a [100 μM, 100 μL in PBS 7.4] (4B); and quantification of signal intensities evolved from each group of mice (4C).
At first, we wanted evaluated the ability of Probe 2a to detect H2O2, therefore we incubated Probe 2a in the presence and absence of H2O2 and monitored the emitted light.

For a further data set, the system named is endogenous H2O2. The data set can be described thus: In-vivo imaging of endogenous H2O2 in peritoneal cavity of mice, LPS-induced peritonitis. Here is the method:
as §1
Since we established that our luminophores can serve as chemiluminescence reporter for in-vitro imaging we wanted to test their ability to image a whole animal. We tested the ability of Probe 2a to detect endogenous H2O2 by using a mouse model peritonitis that was induced by intraperitoneal injection of lipopolysaccharide (LPS). […] Three groups of mice were applied: (A) mice that were treated with LPS followed by the injection of probe 2a; (B) mice that were treated with LPS followed by the injection of Probe 2b; and (C) mice that were treated with vehicle control (PBS 7.4) followed by the injection of Probe 2a.
After 1 minute, a ratio of 19 was observed comparing the signal intensities of LPS treated and non-LPS treated mice which were injected with Probe 2a (groups A and C).

For the next data set, the system named is β-galactosidase. Nature of the data set: Chemiluminescence kinetic profile of probes in presence and absence of β-galactosidase. The class given is biochemical. The following applies: 37° C. Here is the method: FIGS. […] (1A); chemiluminescence imaging of Probe 1a [5 μM] in HEK293 cells (1B); and quantification of signal intensities evolving from HEK293 cells (1C).
(§2) The spectral performance of Probe 1a was evaluated by measuring the chemiluminescent signal over time while its incubation took place under physiological conditions in the presence and absence of β-galactosidase (FIG. 1A). […] The emission spectra of 1a overlaps with its parent Luminophore 1 as expected. Next, we investigated the feasibility of Probe 1a to image the over expression of endogenous β-galactosidase in HEK293 cells transfected with the LacZ gene. We incubated Probe 1a with HEK293-LacZ and HEK293-wt cells. […] The chemiluminescence signal was quantified as depicted in FIG. 1C.
The study in which the feasibility of Probe 1a to image the over expression of endogenous β-galactosidase in HEK293 cells transfected with the LacZ gene was repeated using Probe 3a, corresponding to Luminophore 3 wherein the phenol is masked with a β-galactosidase substrate as the responsive protecting group, and a short polyethylene-glycol ester is introduced instead of the […] acid residue, considering that cell permeability is reduced by negatively charged species.

Data set [3] has as its target T1, β-galactosidase in HEK293 cells transfected with the LacZ gene (Escherichia coli, UniProt P00722).
T1 construct: expressed in transfected cells; host or cells: HEK293 (HEK293-LacZ)
The data set can be described thus: Chemiluminescence imaging of HEK293-LacZ versus HEK293-wt cells. The class given is cell-based. Here is the method:
FIGS. 1A-1C show the chemiluminescence kinetic profiles of probes 1a [10 μM] in PBS, pH 7.4, in the presence and absence of 1.5 units/mL β-galactosidase at 37° C. (1A); chemiluminescence imaging of Probe 1a [5 μM] in HEK293 cells (1B); and quantification of signal intensities evolving from HEK293 cells (1C).
Images were obtained following 20 minutes incubation with cell culture medium containing Probe 3a (5 μM), and were recorded on BioSpace Lab PhotonIMAGER™.
as §2
In order to investigate the feasibility of Probe 3a to monitor the enzymatic activity of β-galactosidase in vitro, the probe [1 μM] was incubated for 30 minutes with transfected HEK293-LacZ cell that overexpress the enzyme β-galactosidase, and under the same conditions with HEK293-wt cell as a control. The chemiluminescent signal was collected for 4 hours from the samples and quantified as depicts in FIG. 3.

Where [4] appears, read: probe 1 μM, 30 minutes incubation.

The term pKa denotes the pH at which an ionisable group is half protonated. A lower pKa goes with a stronger acid or weaker base.

The structures appear in SMILES notation.

T1 sequence (P00722 whole entry): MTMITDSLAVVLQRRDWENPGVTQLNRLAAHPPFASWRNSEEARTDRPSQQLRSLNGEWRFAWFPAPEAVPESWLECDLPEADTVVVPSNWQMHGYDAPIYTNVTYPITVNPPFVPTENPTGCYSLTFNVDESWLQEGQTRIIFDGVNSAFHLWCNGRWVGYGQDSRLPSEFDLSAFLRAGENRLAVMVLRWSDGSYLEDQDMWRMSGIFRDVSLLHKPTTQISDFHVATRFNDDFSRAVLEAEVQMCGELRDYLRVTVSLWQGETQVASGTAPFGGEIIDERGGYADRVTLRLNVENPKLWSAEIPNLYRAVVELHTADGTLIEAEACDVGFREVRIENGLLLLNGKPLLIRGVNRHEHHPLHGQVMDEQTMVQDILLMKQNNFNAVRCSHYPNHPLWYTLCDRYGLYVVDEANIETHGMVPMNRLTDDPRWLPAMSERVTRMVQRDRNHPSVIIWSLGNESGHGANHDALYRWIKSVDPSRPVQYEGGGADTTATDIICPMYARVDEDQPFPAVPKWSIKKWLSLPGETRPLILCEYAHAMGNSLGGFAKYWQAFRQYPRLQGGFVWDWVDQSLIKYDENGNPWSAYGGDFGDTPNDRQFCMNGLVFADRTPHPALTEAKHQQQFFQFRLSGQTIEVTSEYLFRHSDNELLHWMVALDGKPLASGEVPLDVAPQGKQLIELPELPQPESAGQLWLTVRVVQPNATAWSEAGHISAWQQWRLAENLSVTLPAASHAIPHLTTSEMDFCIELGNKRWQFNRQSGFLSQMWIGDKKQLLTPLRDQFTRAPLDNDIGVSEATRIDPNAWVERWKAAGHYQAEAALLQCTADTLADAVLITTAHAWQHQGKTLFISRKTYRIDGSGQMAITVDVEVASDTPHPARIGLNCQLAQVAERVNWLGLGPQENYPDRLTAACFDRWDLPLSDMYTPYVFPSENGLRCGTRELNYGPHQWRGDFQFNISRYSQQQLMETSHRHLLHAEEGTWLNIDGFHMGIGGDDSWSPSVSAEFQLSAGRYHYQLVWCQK

Consider `COC1(c2cc(O)c(/C=C/C(=O)O)cc2/C=C/C2=CC(=C(C#N)C#N)c3ccccc3O2)OOC12C1CC3CC(C1)CC2C3` (stereo not drawn) [Luminophore 2], for which, in data set [1], the pKa stood at 7.35, the “ΦCL (chemiluminescence efficiency)” value is reported as 1.12% and the “λ maxCL (maximal chemiluminescence emission)” value (shortened to “λ maxCL”) worked out at 690 nm.

With `COC1(c2ccc(/C=C/C3=CC(=C(C#N)C#N)c4ccccc4O3)c(O)c2Cl)OOC12C1CC3CC(C1)CC2C3` (stereo not drawn) [Luminophore 4], in data set [1], the pKa was 6.72, the “ΦCL (chemiluminescence efficiency)” value was found to be 0.95% and the “λ maxCL” value came out at 730 nm.

In the case of `COC1(c2cc(O)c(/C=C/C(=O)O)cc2/C=C/C2=C(C#N)C(=C(C#N)C#N)OC2(C)C)OOC12C1CC3CC(C1)CC2C3` (stereo not drawn) [Luminophore 3], in data set [1], the pKa is 7.71, the “ΦCL (chemiluminescence efficiency)” value was 0.70% and the “λ maxCL” value turned out to be 670 nm.

As for `COC1(c2cc(B3OC(C)(C)C(C)(C)O3)c(/C=C/C(=O)O)cc2/C=C/C2=CC(=C(C#N)C#N)c3ccccc3O2)OOC12C1CC3CC(C1)CC2C3` (stereo not drawn) [Probe 2a], the signal-to-noise ratio in data set [2] is 57. Further, the “chemiluminescence signal right after probe injection” value with endogenous H2O2 (group A (LPS + Probe 2a) compared with groups B and C) is “efficient chemiluminescence signal”. Further, the “signal ratio, LPS treated mice injected with Probe 2a vs Probe 2b” value in the data set with endogenous H2O2 (groups A and B, IP probe 100 μM, 100 μL in PBS, 4 h after LPS) is 45. Further, the “ratio of signal intensities, LPS treated vs non-LPS treated mice” value in the data set with endogenous H2O2 (groups A and C, IP probe 100 μM, 100 μL in PBS, 4 h after LPS or PBS, after 1 minute) is reported as 19.

Take `COCCOCCOCCOCCOC(=O)/C=C/c1cc(/C=C/C2=C(C#N)C(=C(C#N)C#N)OC2(C)C)c(C2(OC)OOC23C2CC4CC(C2)CC3C4)cc1OCc1ccc(O[C@@H]2OC(CO)[C@H](O)[C@H](O)C2O)cc1` (stereo partly drawn) [Probe 3a]: the signal-to-noise ratio with β-galactosidase (probe 1 μM in PBS (100 mM) 7.4 with 10% serum, presence vs absence of β-galactosidase 1.5 EU/mL) stood at 43. Further, the “signal ratio between transfected cells to wild type” value in data set [3] (HEK293-LacZ vs HEK293-wt, probe 1 μM incubated 30 minutes, signal collected 4 hours) is recorded as 17. Moreover, in data set [3] (setting [4]), the “chemiluminescent signal in HEK293-LacZ cells” value was “intense chemiluminescent signal” and the “chemiluminescent signal in HEK293-wt cells” value was “unneglectable chemiluminescent signal”.

Turning to `COC1(c2cc(O[C@@H]3OC(CO)[C@H](O)C(O)C3O)ccc2/C=C/C2=CC(=C(C#N)C#N)c3ccccc3O2)OOC12C1CC3CC(C1)CC2C3` (stereo partly drawn) [Probe 1a], the signal-to-noise ratio in the data set on β-galactosidase (probe 10 μM in PBS pH 7.4, presence vs absence of 1.5 units/mL β-galactosidase) came to 17. Moreover, in data set [3] (HEK293-LacZ vs HEK293-wt, probe 5 μM), the “ratio between signal intensities of transfected cells to wild type cells” value amounted to 14. Besides, in data set [3] (probe 5 μM), the “chemiluminescent signal in HEK293-LacZ cells” value is on record as “intense chemiluminescent signal” and the “chemiluminescent signal in HEK293-wt cells” value is recorded as “negligible chemiluminescent signal”.

With `COC1(c2cc(O)ccc2/C=C/C2=CC(=C(C#N)C#N)c3ccccc3O2)OOC12C1CC3CC(C1)CC2C3` (stereo not drawn) [Luminophore 1], in data set [1], the pKa is ~8.8, the “ΦCL (chemiluminescence efficiency)” value amounted to 0.82% and the “λ maxCL” value is reported as 660 nm.

The values are drawn from patent US11241507B2, “Near-infrared chemiluminescent probes for in-vivo imaging” (RAMOT AT TEL-AVIV UNIVERSITY LTD., priority 2017, dated 2022).
